From patent US6362216B1, “Compounds which inhibit tryptase activity” (Array Biopharma Inc., priority 1998, dated 2002)

Assays:
Format in all cases: biochemical
Human lung tryptase = molecular target: T1, Human lung tryptase; assay: Human lung tryptase inhibition, chromogenic GPR-pNA substrate
T1 construct: Human lung tryptase purchased from Cortex Biochem (San Leandro, Calif.) was purified further on a Superdex 200 gel-filtration column
Protocol: (§1) Protease inhibition was assayed according to published procedures with minor modifications using various proteases and specific chromogenic peptide p-nitroanilide substrates. Assays were performed in Costar ultra-low cluster 96-well microtiter plate (Costar Corning Corp., Cambridge Mass.). Each protease was incubated with various concentrations of the test compound for 15 min. at 37° C. or as otherwise indicated, in specific assay buffer, and the residual activity was then measured by addition of the substrate. p-Nitroaniline produced by the proteolysis was determined by measuring the change in absorbance at 405 nm on a SpectraMAX 340 plate reader (Molecular devices, Sunnyvale, Calif.).
(§2) 1. The inhibition constant, Ki is calculated from individual data points using the equation for a tight-binding inhibitor (See Beith, “Proteinase Inhibitors-Proceedings of 2nd Int. Res. Conference”, Fritz, et al. eds., New York, p.4463-4469 (1974)):
vi/vo=[((Ki′+[I]+[E]o)^2−4[I]o[E]o)^½(Ki′+[I]o−[E]o)]/2[E]o
where Ki′ is apparent inhibition constant; vi and vo are the inhibited and uninhibited rates, respectively; [I]o and [E]o are the total concentrations of inhibitor and enzyme, respectively.
[note: [E]o is determined by active site titration of enzyme]
(§3) The Ki values are obtained by correcting Ki ′ values for the effect of substrate concentration according to: [formula]
(§4) 2. Other inhibition data (Ki>>[E]o), the Ki is calculated from using the equations for a competitive inhibitor: [formula]
IC50 is determined by fitting the individual inhibition data point to Sigmoid or four-parameter curve-fit equations.
Human lung tryptase purchased from Cortex Biochem (San Leandro, Calif.) was purified further on a Superdex 200 gel-filtration column. The active-site concentration of the enzyme was determined by spectrophotometric titration with 4-nitrophenyl 4′-guanidinobenzoate according to Schwartz, et al., J. Immunol., 114, 2304-2311 (1990). Tryptase activity was measured according to the procedures of Schwartz, et al., J. Biol. Chem., 261, 7372-7379 (1986) (See also, Schwartz, L. B., Methods In Enzymology, 244, 88 (1994)) with minor modifications, using Tosyl-Gly-Pro-Arg-p-nitroanilide (“GPR-pNA”, Sigma Chemical Co., St. Louis, Mo., T-1637) as a chromogenic substrate. The reaction was performed in 50 mM Tris-HCl, pH 8.0, containing 150 mM NaCl and 0.02% Triton X-100 at 37° C. in Costar ultra-low cluster 96-well microtiter plates (Costar Corning Corp., Cambridge, Mass.). The amount of pNA produced by tryptase was determined by measuring the change in absorbance at 405 nm on a SpectraMAX 340 plate reader (Molecular devices, Sunnyvale, Calif.). The Km for the substrate was determined by Lineweaver-Burk analysis from initial velocities of substrate hydrolysis. The inhibition assay was carried out in a total volume of 200 μL. Tryptase (30 μL-final concentration 1 nM) was incubated with various concentrations of sample compound (50 μL) to be tested in the above assay buffer for 5 min. The reaction was started by the addition of substrate GPR-pNA (40 μL-final concentration 320 μM), and the residual activity was measured after 15 min. of incubation. The inhibition constant, Ki, was determined by fitting the inhibition data to a two-site competitive binding equation using data analysis program GraphPad PRISM (GraphPad Software, Inc., San Diego, Calif.).
(§5) The inhibition constant (Ki) of the test compounds against each proteolytic enzyme was determined according to Zitnik et al., Biochem. Biophys. Res. Commun. 232, 687-697 (1997)).

Human plasma thrombin = molecular target: T2, Human plasma thrombin (Homo sapiens, UniProt P00734); assay: Human plasma thrombin inhibition, H-D-Phe-Pip-Arg-pNA substrate
T2 construct: from tissue; host or cells: human plasma
Protocol: as §1, §2, §3, §4
Human plasma thrombin activity was determined by using H-D-Phe-Pip-Arg-pNA in 50 mM Tris-HCl, pH 8.3, 100 mM NaCl, 1% BSA (See Lottenberg, et al., Meth. Enzymol. 80, 341-361 (1981)).
as §5

[1] = molecular target: T3, Bovine pancreatic Trypsin (TPCK-treated) (Bos taurus, UniProt P00760); assay: Bovine pancreatic trypsin inhibition, N-α-Benzoyl-L-Arg-pNA substrate
T3 construct: from tissue; host or cells: bovine pancreas
T3 sequence (P00760 24-246): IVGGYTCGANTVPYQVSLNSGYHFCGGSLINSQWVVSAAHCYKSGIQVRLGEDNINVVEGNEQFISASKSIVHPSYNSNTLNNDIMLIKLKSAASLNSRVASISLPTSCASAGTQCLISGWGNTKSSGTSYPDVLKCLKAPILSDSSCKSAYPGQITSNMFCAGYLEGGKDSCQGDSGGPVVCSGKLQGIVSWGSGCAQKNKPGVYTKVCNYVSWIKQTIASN
Protocol: as §1, §2, §3, §4
C. Bovine Pancreatic Trypsin
Bovine pancreatic Trypsin (TPCK-treated) activity was determined by using N-α-Benzoyl-L-Arg-pNA in 50 mM Tris-HCl, pH 8.2, 20 mM CaCl2 (See Somorin, et al., J. Biochem. 85, 157-162 (1979)).
as §5

[2] = tryptase 1 nM, GPR-pNA 320 μM, 50 mM Tris-HCl pH 8.0, 37° C.
[3] = 50 mM Tris-HCl, pH 8.3, 100 mM NaCl, 1% BSA
[4] = 50 mM Tris-HCl, pH 8.2, 20 mM CaCl2

## N=C(N)c1ccc2[nH]c(CC(=O)Nc3ccccn3)nc2c1 [2-Pyridyl]
Human lung tryptase; [2]
  Ki: 1.2 µM

## CS(=O)(=O)Nc1cccc(NC(=O)Cc2nc3cc(C(=N)N)ccc3[nH]2)c1 [(3-N(H)SO2CH3)Ph]
Human lung tryptase; [2]
  Ki: 7.7 µM

## N=C(N)c1ccc2[nH]c(CC(=O)Nc3cccc(O)c3)nc2c1 [(3-OH)Ph]
Human lung tryptase; [2]
  Ki: 0.57 µM
Human plasma thrombin; [3]
  Ki: > 100 µM
[1]; [4]
  Ki: 8.7 µM

## N=C(N)c1ccc2cc(C(=O)NCCc3ccc(N)cc3)ccc2c1
Human lung tryptase; [2]
  Ki: 0.16 µM
Human plasma thrombin; [3]
  Ki: > 100 µM
[1]; [4]
  Ki: 0.95 µM

## N=C(N)c1ccc2cc(CC(=O)Nc3cccc(N)c3)ccc2c1
Human lung tryptase; [2]
  Ki: 1.2 µM
Human plasma thrombin; [3]
  Ki: > 100 µM
[1]; [4]
  Ki: 2.1 µM

## CCNC(=O)Cc1nc2cc(C(=N)N)ccc2[nH]1 [CH2CH3]
Human lung tryptase; [2]
  Ki: 7.4 µM

## N=C(N)c1ccc(NC(=O)Cc2nc3cc(C(=N)N)ccc3[nH]2)cc1 [(4-Amidino)Ph]
Human lung tryptase; [2]
  Ki: 0.97 µM
Human plasma thrombin; [3]
  Ki: > 100 µM
[1]; [4]
  Ki: 1.7 µM

## N=C(N)c1ccc2sc(C(=O)NCc3cccc(N)c3)cc2c1
Human lung tryptase; [2]
  Ki: 0.22 µM
Human plasma thrombin; [3]
  Ki: > 100 µM
[1]; [4]
  Ki: 9.1 µM

## N=C(N)c1ccc2cc(C(=O)NCc3cccc(N)c3)ccc2c1
Human lung tryptase; [2]
  Ki: 0.08 µM
Human plasma thrombin; [3]
  Ki: > 100 µM
[1]; [4]
  Ki: 1.3 µM

## N=C(N)c1ccc2[nH]c(CC(=O)NCCc3ccccc3)nc2c1 [X = H n = 2]
Human lung tryptase; [2]
  Ki: 5.5 µM

## N=C(N)c1ccc2[nH]c(CC(=O)Nc3ccc(S(N)(=O)=O)cc3)nc2c1 [(4-SO2NH2)Ph]
Human lung tryptase; [2]
  Ki: 2.2 µM

## N=C(N)c1ccc2[nH]c(CC(=O)NC3CCCCC3)nc2c1 [Cyclohexyl]
Human lung tryptase; [2]
  Ki: 36.9 µM

## N=C(N)c1ccc2[nH]c(CC(=O)Nc3ccc(N)cc3)cc2c1 [drawing 15 Indole 5-carboxamidine n=1 m=0]
Human lung tryptase; [2]
  Ki: 0.2 µM
Human plasma thrombin; [3]
  Ki: > 100 µM
[1]; [4]
  Ki: 3.8 µM

## N=C(N)c1ccc2[nH]c(CC(=O)Nc3ccccc3)nc2c1 [X = H n = 0]
Human lung tryptase; [2]
  Ki: 9.5 µM

## N=C(N)c1ccc2[nH]c(CC(=O)NC3CCN(Cc4ccccc4)CC3)nc2c1 [4-Piperidinyl(N-benzyl)]
Human lung tryptase; [2]
  Ki: 1.7 µM

## CS(=O)(=O)Nc1ccc(NC(=O)Cc2nc3cc(C(=N)N)ccc3[nH]2)cc1 [(4-N(H)SO2CH3)Ph]
Human lung tryptase; [2]
  Ki: 3.9 µM

## N=C(N)c1ccc2[nH]c(CC(=O)NCCc3ccncc3)nc2c1 [CH2CH2(4-Pyridyl)]
Human lung tryptase; [2]
  Ki: 1.3 µM

## Cc1cc2cc(CNC(=O)Cc3ccc4cc(C(=N)N)ccc4c3)ccc2[nH]1 [drawing 17 Naphthalene 2,6-substitution n=1]
Human lung tryptase; the 5th table, unit inferred
  Ki: 0.01 µM
Human plasma thrombin; the 5th table, unit inferred
  Ki: > 100 µM
[1]; the 5th table, unit inferred
  Ki: 0.34 µM

## N=C(N)c1ccc2cc(C(=O)NCc3ccc(N)cc3)ccc2c1
Human lung tryptase; [2]
  Ki: 0.21 µM
Human plasma thrombin; [3]
  Ki: > 100 µM
[1]; [4]
  Ki: 0.59 µM

## N=C(N)c1ccc2sc(CC(=O)NCc3cccc(N)c3)cc2c1
Human lung tryptase; [2]
  Ki: 0.09 µM
Human plasma thrombin; [3]
  Ki: > 100 µM
[1]; [4]
  Ki: 6.4 µM

## N=C(N)c1ccc2[nH]c(CC(=O)Nc3ccc4ncccc4c3)nc2c1 [6-Quinoline]
Human lung tryptase; [2]
  Ki: 0.34 µM
Human plasma thrombin; [3]
  Ki: > 100 µM
[1]; [4]
  Ki: 4.6 µM

## N=C(N)c1ccc2sc(C(=O)NCc3ccc(N)cc3)cc2c1
Human lung tryptase; [2]
  Ki: 0.44 µM
Human plasma thrombin; [3]
  Ki: > 100 µM
[1]; [4]
  Ki: 8.8 µM

## N=C(N)c1ccc2[nH]c(CC(=O)Nc3ccc4ccccc4c3)nc2c1 [2-Napthyl]
Human lung tryptase; [2]
  Ki: 5.2 µM

## N=C(N)c1ccc2[nH]c(CC(=O)NCc3ccncc3)nc2c1 [CH2(4-Pyridyl)]
Human lung tryptase; [2]
  Ki: 4.7 µM

## N=C(N)c1ccc2[nH]c(CC(=O)NCc3cccc(N)c3)nc2c1 [CH2Ph(3-Amino)]
Human lung tryptase; [2]
  Ki: 0.49 µM
Human plasma thrombin; [3]
  Ki: > 100 µM
[1]; [4]
  Ki: 7.5 µM

## CNC(=O)Cc1nc2cc(C(=N)N)ccc2[nH]1 [CH3]
Human lung tryptase; [2]
  Ki: 42.8 µM

## N=C(N)c1cccc(NC(=O)Cc2nc3cc(C(=N)N)ccc3[nH]2)c1 [(3-Amidino)Ph]
Human lung tryptase; [2]
  Ki: 0.52 µM
Human plasma thrombin; [3]
  Ki: > 100 µM
[1]; [4]
  Ki: 2.2 µM

## N=C(N)c1ccc2sc(C(=O)NCCc3ccc(N)cc3)cc2c1
Human lung tryptase; [2]
  Ki: 0.17 µM
Human plasma thrombin; [3]
  Ki: > 100 µM
[1]; [4]
  Ki: 8.3 µM

## N=C(N)c1ccc2[nH]c(CC(N)=O)nc2c1 [H]
Human lung tryptase; [2]
  Ki: 31.4 µM

## N=C(N)c1ccc2cc(C(=O)Nc3cccc(N)c3)ccc2c1
Human lung tryptase; [2]
  Ki: 0.055 µM
Human plasma thrombin; [3]
  Ki: > 100 µM
[1]; [4]
  Ki: 0.43 µM

## N=C(N)c1ccc2sc(C(=O)Nc3cccc(N)c3)cc2c1
Human lung tryptase; [2]
  Ki: 0.52 µM
Human plasma thrombin; [3]
  Ki: > 100 µM
[1]; [4]
  Ki: 14 µM

## N=C(N)c1ccc2[nH]c(CC(=O)Nc3cccc(N)c3)cc2c1 [drawing 14 Indole 5-carboxamidine n=1 m=0]
Human lung tryptase; [2]
  Ki: 0.39 µM
Human plasma thrombin; [3]
  Ki: > 100 µM
[1]; [4]
  Ki: 4 µM

## N=C(N)c1ccc2[nH]c(CC(=O)Nc3cccc(N)c3)nc2c1 [(3-Amino)Ph]
Human lung tryptase; [2]
  Ki: 0.29 µM
Human plasma thrombin; [3]
  Ki: > 100 µM
[1]; [4]
  Ki: 14.2 µM

## N=C(N)c1ccc2[nH]c(CC(=O)Nc3ccc4[nH]ccc4c3)nc2c1 [5-Indole]
Human lung tryptase; [2]
  Ki: 0.81 µM
Human plasma thrombin; [3]
  Ki: > 100 µM
[1]; [4]
  Ki: 21.8 µM

## N=C(N)c1ccc2[nH]c(CC(=O)NCc3ccc(N)cc3)cc2c1 [drawing 15 Indole 5-carboxamidine n=1 m=1]
Human lung tryptase; [2]
  Ki: 0.44 µM
Human plasma thrombin; [3]
  Ki: 65 µM
[1]; [4]
  Ki: 3.4 µM

## CCCNC(=O)Cc1nc2cc(C(=N)N)ccc2[nH]1 [CH2CH2CH3]
Human lung tryptase; [2]
  Ki: 9.6 µM

## N=C(N)c1ccc2[nH]c(CC(=O)NCc3ccc(CN)cc3)nc2c1 [CH2Ph(4-CH2NH2)]
Human lung tryptase; [2]
  Ki: 2.5 µM

## CC(=O)Nc1ccc(NC(=O)Cc2nc3cc(C(=N)N)ccc3[nH]2)cc1 [(4-N(H)COCH3)Ph]
Human lung tryptase; [2]
  Ki: 6.4 µM

## N=C(N)c1ccc2[nH]c(CC(=O)NCc3ccccc3)nc2c1 [X = H n = 1]
Human lung tryptase; [2]
  Ki: 21.8 µM

## N#Cc1ccc2[nH]c(Cc3nc4cc(C(=N)N)ccc4[nH]3)nc2c1
Human lung tryptase; [2]
  Ki: 0.1 µM
